Assay results taken from patent publication US7868012B2, “Sulfamides as endothelin receptor antagonists for the treatment of cardiovascular diseases” (Actelion Pharmaceuticals, Ltd., priority 2004, dated 2011).

Tests used:
[1] = biological target: T1, human recombinant ETB receptors (Homo sapiens, UniProt P24530); assay: Inhibition of [125I]ET-1 binding to membranes from CHO cells carrying human ETB receptors; further: 2.5% DMSO
T1 construct: expressed in transfected cells; host or cells: CHO cells (microsomal membranes)
T1 sequence (P24530 27-442): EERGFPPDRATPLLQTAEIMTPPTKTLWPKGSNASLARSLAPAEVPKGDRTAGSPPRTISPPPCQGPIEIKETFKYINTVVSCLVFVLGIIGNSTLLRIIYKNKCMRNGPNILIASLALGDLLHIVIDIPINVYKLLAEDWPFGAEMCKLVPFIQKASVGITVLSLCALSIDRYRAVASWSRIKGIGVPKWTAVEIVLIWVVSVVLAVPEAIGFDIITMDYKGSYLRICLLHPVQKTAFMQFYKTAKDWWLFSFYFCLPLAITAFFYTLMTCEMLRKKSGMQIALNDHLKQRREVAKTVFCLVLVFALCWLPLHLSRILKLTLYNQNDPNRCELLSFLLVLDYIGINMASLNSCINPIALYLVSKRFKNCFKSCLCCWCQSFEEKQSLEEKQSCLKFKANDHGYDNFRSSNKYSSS
Procedure: 1) Inhibition of Endothelin Binding to Membranes from CHO Cells Carrying Human ET Receptors:
For competition binding studies, membranes of CHO cells expressing human recombinant ETA or ETB receptors were used. Microsomal membranes from recombinant CHO cells were prepared and the binding assay made as previously described (Breu V., et al, FEBS Lett 1993; 334:210).
The assay is performed in 200 uL 50 mM Tris/HCl buffer, pH 7.4, including 25 mM MnCl2, 1 mM EDTA and 0.5% (w/v) BSA in polypropylene microtiter plates. […]. […] After 2 h, the membranes were filtered on filterplates containing GF/C filters (Unifilterplates from Canberra Packard S. A. Zürich, Switzerland). To each well, 50 uL of scintillation cocktail is added (MicroScint 20, Canberra Packard S. A. Zürich, Switzerland) and the filter plates counted in a microplate counter (TopCount, Canberra Packard S. A. Zürich, Switzerland).
All the test compounds were dissolved, diluted and added in DMSO. […] […].

[2] = biological target: T2, ETB receptors (rat tracheal rings) (Rattus norvegicus, UniProt P21451); assay: Inhibition of sarafotoxin S6c-induced contraction of isolated rat tracheal rings; format: cell-based; conditions: contraction induced by sarafotoxin S6c, 10 min incubation, read-out: pA2 value Trachea (converted)
T2 construct: The thoracic aorta or trachea were excised, dissected and cut in 3-5 mm rings; from tissue; host or cells: tracheal rings of adult Wistar rats, epithelium removed
T2 sequence (P21451 27-442): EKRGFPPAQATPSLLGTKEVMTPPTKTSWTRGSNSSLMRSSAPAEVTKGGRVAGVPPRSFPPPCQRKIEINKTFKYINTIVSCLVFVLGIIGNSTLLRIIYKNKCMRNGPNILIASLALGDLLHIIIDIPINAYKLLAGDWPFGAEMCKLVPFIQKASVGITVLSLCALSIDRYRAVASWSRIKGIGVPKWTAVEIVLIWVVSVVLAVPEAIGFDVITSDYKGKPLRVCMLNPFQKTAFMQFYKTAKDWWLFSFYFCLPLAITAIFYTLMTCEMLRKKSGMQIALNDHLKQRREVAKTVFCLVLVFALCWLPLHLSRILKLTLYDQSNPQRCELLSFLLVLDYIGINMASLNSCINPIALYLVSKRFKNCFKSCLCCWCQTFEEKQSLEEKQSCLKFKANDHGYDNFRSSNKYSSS
Procedure: (§1) 2) Inhibition of Endothelin-Induced Contractions on Isolated Rat Aortic Rings (ETA Receptors) and Rat Tracheal Rings (ETB Receptors):
(§2) The functional inhibitory potency of the endothelin antagonists was assessed by their inhibition of the contraction induced by endothelin-1 on rat aortic rings (ETA receptors) and of the contraction induced by sarafotoxin S6c on rat tracheal rings (ETB receptors). Adult Wistar rats were anesthetized and exsanguinated. The thoracic aorta or trachea were excised, dissected and cut in 3-5 mm rings. The endothelium/epithelium was removed by gentle rubbing of the intimal surface. Each ring was suspended in a 10 mL isolated organ bath filled with Krebs-Henseleit solution (in mM; NaCl 115, KCl 4.7, MgSO4 1.2, KH2PO4 1.5, NaHCO3 25, CaCl2 2.5, glucose 10) kept at 37° C. and gassed with 95% O2 and 5% CO2. The rings were connected to force transducers and isometric tension was recorded (EMKA Technologies SA, Paris, France). The rings were stretched to a resting tension of 3 g (aorta) or 2 g (trachea). […] The functional inhibitory potency of the test compound was assessed by calculating the concentration ratio, i.e. the shift to the right of the EC50 induced by different concentrations of test compound. […]

[3] = biological target: T3, human recombinant ETA receptors (Homo sapiens, UniProt P25101); assay: Inhibition of [125I]ET-1 binding to membranes from CHO cells carrying human ETA receptors
T3 construct: expressed in transfected cells; host or cells: CHO cells (microsomal membranes)
T3 sequence (P25101 21-427): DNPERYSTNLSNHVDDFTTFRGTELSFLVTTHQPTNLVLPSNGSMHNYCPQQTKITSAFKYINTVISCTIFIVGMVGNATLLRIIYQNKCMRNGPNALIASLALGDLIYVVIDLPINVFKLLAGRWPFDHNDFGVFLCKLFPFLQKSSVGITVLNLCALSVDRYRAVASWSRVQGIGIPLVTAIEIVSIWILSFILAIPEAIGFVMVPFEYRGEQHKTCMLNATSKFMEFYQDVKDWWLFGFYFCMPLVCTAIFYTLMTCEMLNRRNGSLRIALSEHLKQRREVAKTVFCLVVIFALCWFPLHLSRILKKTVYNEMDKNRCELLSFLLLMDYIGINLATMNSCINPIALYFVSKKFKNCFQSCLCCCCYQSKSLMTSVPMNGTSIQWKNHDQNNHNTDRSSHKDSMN

[4] = biological target: T4, ETA receptors (rat aortic rings) (Rattus norvegicus, UniProt P26684); assay: Inhibition of endothelin-1-induced contraction of isolated rat aortic rings; format: cell-based; conditions: read-out: pA2 value Aorta (converted)
T4 construct: The thoracic aorta or trachea were excised, dissected and cut in 3-5 mm rings; from tissue; host or cells: thoracic aorta rings of adult Wistar rats, endothelium removed
T4 sequence (P26684 21-426): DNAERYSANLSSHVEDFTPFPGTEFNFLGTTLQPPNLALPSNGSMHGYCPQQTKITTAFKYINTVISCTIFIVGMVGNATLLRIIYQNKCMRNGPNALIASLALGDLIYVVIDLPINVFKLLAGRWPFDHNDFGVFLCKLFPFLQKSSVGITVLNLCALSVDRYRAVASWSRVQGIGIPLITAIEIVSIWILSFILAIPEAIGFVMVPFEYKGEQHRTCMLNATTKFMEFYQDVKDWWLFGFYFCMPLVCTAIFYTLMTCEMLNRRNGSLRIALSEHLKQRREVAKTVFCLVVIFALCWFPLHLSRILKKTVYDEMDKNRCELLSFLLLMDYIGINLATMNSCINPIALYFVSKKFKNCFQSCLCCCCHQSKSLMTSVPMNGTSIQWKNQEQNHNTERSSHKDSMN
Procedure: as §1, §2

SMILES	IC50 [1]	Kb [2]	IC50 [3]	Kb [4]
O=S(=O)(NCCCO)Nc1ncnc(OCCOc2ncc(Br)cn2)c1-c1ccc(Br)cc1 [Example 1, 1-hydroxypropanesulfamic acid[6-(2-(5-bromopyrimid-2-yloxy)-ethoxy)-5-(4-bromophenyl)-pyrimidin-4-yl]-amide]	322 nM	3160 nM	0.603 nM	100 nM
O=C(O)CCNS(=O)(=O)Nc1ncnc(OCCOc2ncc(Br)cn2)c1-c1ccc(Br)cc1 [Example 2]	330 nM	794 nM	0.656 nM	6.31 nM
